Reference: patent US20130079370A1, “Method for the Inhibition of Deubiquitinating Activity” (priority 2011, published 2013)

How the values were obtained:
[1] = system: HTC-116, hTERT-RPE1 and PBMC; assay: Cytotoxic activity, FMCA method; assay type: cell-based; conditions: 72 h
Method: For the FMCA assay cells were seeded in the drug-prepared 384-well plates using the pipetting robot Precision 2000 (Bio-Tek Instruments Inc., Winooski, Vt.). The plates were incubated for 72 h and then transferred to an integrated HTS SAIGAN Core System consisting of an ORCA robot (Beckman Coulter) with CO2 incubator (Cytomat 2C, Kendro, Sollentuna, Sweden), dispenser module (Multidrop 384, Titertek, Huntsville, Ala.), washer module (ELx 405, Bio-Tek Instruments Inc), delidding station, plate hotels, barcode reader (Beckman Coulter), liquid handler (Biomek 2000, Beckman Coulter) and a multipurpose reader (FLUOstar Optima, BMG Labtech GmbH, Offenburg, Germany) for automated FMCA. Survival index (SI) is defined as the fluorescence of test wells in percentage of controls with blank values subtracted.
HCT-116 cells were treated with increasing concentrations of b-AP15 for 24 h and the levels of apoptosis were determined by measuring the levels of caspase cleaved cytokeratin-18 (CK18) by ELISA assay (FIG. 6a). HCT-116 cells were treated with increasing concentrations of b-AP15 for 48 h). Cell viability was determined by acid-phosphatase activity assay. […] IC50 was determined from log concentration/effect curves in Graph Pad Prism (GraphPad Software Inc. CA, USA) using non-linear regression analysis (four parameter model with variable Hill slope) (FIGS. 6e, 6f). […]

[2] = system: FaDu head and neck carcinoma xenografts; assay: FaDu head and neck carcinoma xenografts in SCID mice; assay type: in vivo
Method: In vitro proteasome activity assays were performed in black 96-well microtitier plates using human 20S proteasome (Boston Biochem) in reaction buffer (25 mM Hepes, 0.5 mM EDTA, 0.03% SDS) with Suc-LLVY-AMC, Z-LLE-AMC or Boc-LRRAMC used as substrates for proteasome activity. De-ubiquitinase activity assays were performed with human 19S RP (Boston Biochem) with ubiquitin-AMC as substrate. For FaDu xenograft studies a 100-μl-cell suspension containing 1×10^6 cells was injected subcutaneously into the flank of SCID. Upon tumor take mice were randomized into control or treatment groups and administered with 5 mg kg^−1 b-AP15 or vehicle. In vivo levels of apoptosis and cell death were determined from the detection of caspase cleaved and total levels of cytokeratin-18 in plasma using M30 Apoptosense® and M65 ELISA®s assays (Peviva). […]
Animal experiments were conducted in full accordance with Swedish governmental statutory regulations on animal welfare under permission from local ethical committees. […] All mice were monitored and weighed daily. […] After injection, tumor growth was measured daily with calipers and the tumor volume calculated by the formula L×W^2×0.44. […] Nineteen days after malignant cell injection all of the mice were killed and histopathological manifestations of liver, ovary (target organs for this model of tumor) were evaluated and compared between groups. […]

HCT-116 cells = assay: DNA damage markers, immunoblot; assay type: cell-based; conditions: cell cycle arrest observed
Method: Treatment with b-AP15 increased their levels in a dose dependent manner without altering the levels of ornithine decarboxylase 1 (ODC1), an ubiquitin-independent proteasome substrate (8).
HCT-116 cells were treated with b-AP15 or doxorubicin (100 nM, as a positive control for genotoxic stress for 18 h) (FIG. 5). Cell lysates were immuno-blotted with antibodies for phosphorylated p53 and histone H2 Ax marker for DNA damage of for total levels of p53 and β-actin as loading controls.

For `C=CC(=O)N1C/C(=C\c2ccc([N+](=O)[O-])cc2)C(=O)/C(=C/c2ccc([N+](=O)[O-])cc2)C1` [b-AP15, (3E,5E)-3,5-bis[(4-nitrophenyl)methylidene]-1-(prop-2-enoyl)piperidin-4-one], the “cytotoxic activity, tumor versus normal cell types” value [1] was “more toxic to the colon carcinoma cell line HTC-116 than to immortalized retinal pigment epithelial cells (hTERT-RPE1) and peripheral blood mononuclear cells (PBMC)”, the “treated/control tumor volume, T/C” value ([2]; 5 mg/kg s.c. daily for 10 days, p=<0.001) was 0.4 and the “difference in weight at the start and the endpoint between control and treated animals” value ([2]; FaDu xenograft) was −1.3%. The “DNA damage markers phosphorylated p53 (Ser 15), H2AX (Ser 139)” value (HCT-116 cells) was “not associated with increased levels of DNA damage markers”.
